{"source": "patent US6610716B2", "about": "“Cyanomethyl substituted thiazoliums and imidazoliums and treatments of disorders associated with protein aging” (Alteon Incorporated, priority 2000, dated 2003)", "key": {"[1]": {"tested_on": "TGFbeta", "experiment": "In situ hybridization studies", "assay_type": "in vivo", "excerpt": "(§1) Cardiovascular risk correlates more closely with the systolic and the pulse pressure than with the diastolic pressure. In diabetic patients, the cardiovascular risk profile of diabetic patients is strongly correlated to duration of diabetes, glycemic control and blood pressure. Structural matrix proteins contribute to the function of vessels and the heart, and changes in the physical behavior of cardiovascular walls are believed to be important determinants of circulatory function. In elderly individuals, the loss of compliance in the aorta leads to isolated systolic hypertension, which in turn expands the arterial wall and thereby diminishes the dynamic range of elasticity. […] Treatment with 3-[2-phenyl-2-oxoethyl]-4,5-dimethyl-thiazolium salt lead to a reduction in the mass of collagen in cardiovascular tissues."}, "[2]": {"tested_on": "Type IV collagen", "experiment": "In situ hybridization studies", "assay_type": "in vivo", "excerpt": "as §1"}, "[3]": {"experiment": "Dog model for diabetes, indicators of ventricular elasticity", "assay_type": "in vivo", "excerpt": "as §1"}, "[4]": {"experiment": "In vivo studies of vascular stiffening and cardiovascular collagen", "design": "species or system rodents, canines and primates", "excerpt": "as §1"}, "[5]": {"experiment": "Phase Ia clinical trial", "assay_type": "in vivo, human", "excerpt": "When the heart pumps blood into the vascular system, the ability of the arteries to expand helps to push blood through the body. When arteries become stiff, as they do in the natural process of aging. the ability of the arteries to expand is diminished and also has consequences for the heart. The heart has to work harder to pump the blood into the stiff arteries, and eventually hypertrophies (enlarges in size) to accomplish this. A hypertrophied heart is an inefficient pump, and is one of the disorders that leads to congestive heart failure. […] The potential clinical benefit of this is to lessen the effort that the heart must expend to push blood throughout the body. The effect is also believed to contribute to preventing hypertrophy and subsequent inefficiency of the heart, which inefficiency would contribute to congestive heart failure.\nAtherosclerosis is a disease that involves deposition of blood lipids in plaque in the arteries throughout the body. In coronary arteries, accumulation of plaque progressively leads to reduced coronary flow, with occlusion of the arteries causing focal death of cardiac tissue (myocardial infarction, heart attack). If the amount of tissue that dies is large enough, death ensures. In a Phase Ia trial, one compound believed to work by a mechanism shared by the compounds of the invention, 3-[2-phenyl-2-oxoethyl]-4,5-dimethyl-thiazolium salt, […] the amount of circulating triglycerides (lipids). […] Reducing local deposits of plaque should eventually lessen the risk of myocardial infarction and death due to heart attacks.\nPulse pressure is the difference between systolic and diastolic blood pressure. In a young human, systolic pressure is typically 120 mm Hg and diastolic pressure is 80 mm Hg, resulting in a pulse pressure of 40 mm Hg. With age, in many individuals pulse pressure increases, largely due to the increase in systolic pressure that results from stiff vessel disease. In individuals with pulse pressure greater than 60 mm Hg there is an increased risk of death from cardiovascular morbidities."}, "[6]": {"conditions": "streptozotocin-diabetic rat model; cited from earlier work"}, "[7]": {"tested_on": "red blood cells", "conditions": "in vivo; cited from earlier work"}, "[8]": {"conditions": "in vivo; cited from earlier work"}, "[9]": {"conditions": "diabetic rats; cited from earlier work"}, "[10]": {"conditions": "use of chlorhexidine; cited from earlier work"}}, "note": "Where a name gives a salt, the structure may show the parent alone.", "data": [{"smiles": "Cc1sc[n+](CC#N)c1C.[Br-]", "values": [{"measurement": "melting point", "value": "184 to 186 °C (dec.)"}]}, {"smiles": "N#CC[n+]1csc2c1CCCC2.[Br-]", "values": [{"measurement": "melting point", "value": "215 to 217 °C (dec.)"}]}, {"smiles": "Cc1sc[n+](CC(=O)c2ccccc2)c1C", "note": "[3-[2-phenyl-2-oxoethyl]-4,5-dimethyl-thiazolium salt]", "values": [{"measurement": "expression of TGFbeta", "setting": "[1]", "value": "reduces the expression"}, {"measurement": "expression of Type IV collagen", "setting": "[2]", "value": "reduces the expression"}, {"measurement": "end diastolic pressure", "setting": "[3]", "value": "returned to a value at about the mid-point between the disease impaired value and the value for control dogs"}, {"measurement": "end diastolic volume", "setting": "[3]", "value": "returned to a value at about the mid-point between the disease impaired value and the value for control dogs"}, {"measurement": "mass of collagen in cardiovascular tissues", "setting": "[4]; in vivo", "value": "reduction"}, {"measurement": "vascular stiffening", "setting": "[4]; in vivo studies in rodents, canines and primates", "value": "substantially ameliorating vascular stiffening"}, {"measurement": "stiffness of arteries, as measured by the ratio of stroke volume (ml) to pulse pressure (mm Hg)", "setting": "[5]; Phase Ia clinical trial", "value": "reverse the stiffness of arteries"}, {"measurement": "amount of circulating triglycerides (lipids)", "setting": "[5]; Phase Ia trial", "value": "increased"}, {"measurement": "systolic blood pressure", "setting": "[5]; Phase Ia trial, believed primary cause of the pulse pressure decrease", "value": "lowering the systolic blood pressure"}, {"measurement": "pulse pressure", "setting": "[5]; Phase Ia trial, elderly patients with pulse pressures greater than 60 mm Hg, statistically significant", "value": "reduced pulse pressure"}]}, {"smiles": "N=C(N)NN", "note": "[aminoguanidine]", "values": [{"measurement": "increased glomerular basement membrane thickness", "setting": "[6]", "value": "prevented"}, {"measurement": "diabetes-induced changes in the deformability of red blood cells", "setting": "[7]", "value": "prevent, treat or reverse such changes"}, {"measurement": "immunoglobulin trapping in the kidney", "setting": "[8]", "value": "reduction"}, {"measurement": "aortic wall protein cross-linking", "setting": "[9]", "value": "diminishes"}]}, {"smiles": "[H]/N=C(\\N/C(=N/[H])NCCCCCCNC(=N)NC(=N)Nc1ccc(Cl)cc1)Nc1ccc(Cl)cc1", "note": "[chlorhexidine]", "values": [{"measurement": "dental pellicle", "setting": "[10]", "value": "increased dental pellicle"}]}]}
